From PubChem BioAssay (NCI)
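In this assay, cells in 96-well plates receive the compound at five concentrations for 48 hours. Endpoints are linearly interpolated between the surrounding concentrations. At the TGI there is no net growth.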

Columns and labels:
Assay in all cases: NCI tumour cell line growth inhibition, 48 h
A549 NSCLC = system: A549 NSCLC
A498 renal = system: A498 renal
K-562 leukemia = system: K-562 leukemia
UACC-62 melanoma = system: UACC-62 melanoma
OVCAR-8 ovarian = system: OVCAR-8 ovarian
IGROV1 ovarian = system: IGROV1 ovarian
SNB-75 CNS = system: SNB-75 CNS
HCT-116 colon = system: HCT-116 colon
ACHN renal = system: ACHN renal
SF-295 CNS = system: SF-295 CNS

| SMILES | TGI (A549 NSCLC) [µM] | TGI (A498 renal) [µM] | TGI (K-562 leukemia) [µM] | TGI (UACC-62 melanoma) [µM] | TGI (OVCAR-8 ovarian) [µM] | TGI (IGROV1 ovarian) [µM] | TGI (SNB-75 CNS) [µM] | TGI (HCT-116 colon) [µM] | TGI (ACHN renal) [µM] | TGI (SF-295 CNS) [µM] |
| --- | --- | --- | --- | --- | --- | --- | --- | --- | --- | --- |
| CSc1c(C(C)=O)c(O)n(-c2ccc(C)cc2)c(=O)c1C#N | > 100 | > 100 | > 100 | > 100 | > 100 | > 100 | > 100 | > 100 |  |  |
| C[N+]1(C)CCCC(C#N)(c2ccccc2)CC1 (stereo not drawn) | > 100 | > 100 | > 100 |  | > 100 | > 100 | > 100 | > 100 | > 100 | > 100 |
| O=C(NNC(=O)c1ccco1)c1ccco1 | > 100 | > 100 | > 100 | > 100 | > 100 | > 100 | > 100 | > 100 |  | > 100 |
| C=C1OC2OC(C)C(NC(=O)OCC(Cl)(Cl)Cl)C(OC(C)=O)C2O1 (stereo not drawn) | > 100 | > 100 | > 100 | > 100 | > 100 | > 100 |  | > 100 | > 100 | > 100 |
| OC12CCC3(OC4CCCCO4)c4ccccc4C3C1c1ccccc12 (stereo not drawn) | > 100 |  | > 100 | > 100 | > 100 |  | > 100 | > 100 | > 100 | > 100 |
| CCOC(=O)C1=C(O)CC(=O)N=C1N1CCCC1 | > 100 | > 100 | > 100 | > 100 | > 100 | > 100 |  | > 100 | > 100 | > 100 |
| CN(C(=O)Cc1ccccc1)n1cn[n+](CC(=O)OC(C)(C)C)c1 | > 10 | > 10 | > 10 | > 10 | > 10 | > 10 |  | > 10 | > 10 | > 10 |
| COc1ccc(OC)c2c(C(C)=O)cccc12 | > 100 | > 100 | > 100 | > 100 | > 100 | > 100 |  | > 100 | > 100 | > 100 |
| CN(C)C(=O)C(F)(F)C(c1ccccc1Br)C1C(=O)N(C)C(=O)N(C)C1=O (stereo not drawn) | > 100 | > 100 | > 100 | > 100 | > 100 |  | > 100 | > 100 | > 100 | > 100 |
| CCOC(=O)c1ccc(N(CCOS(C)(=O)=O)CCOS(C)(=O)=O)cc1 | > 100 | > 100 | > 100 | 77.6 | > 100 | > 100 |  | > 100 | 63.7 | > 100 |
| CNC(=O)OCc1cnc([N+](=O)[O-])n1C | > 100 | > 100 | > 100 |  | > 100 | > 100 | > 100 | > 100 | > 100 | > 100 |
| O=C(O)CN1C(=O)c2ccc(NC(=O)C(=O)O)cc2S1(=O)=O | > 100 | > 100 | > 100 | > 100 |  | > 100 |  | > 100 | > 100 | > 100 |
| CCOc1ccc(C2=NN(CC)C(=O)C(C3C(=O)N(c4ccccc4)N=C3C)C2)cc1 (stereo not drawn) | > 100 | > 100 | > 100 | > 100 | > 100 | > 100 |  | > 100 | > 100 | > 100 |
| C[C@]12CC[C@H]3[C@@H](CC=C4C[C@@H](O)CC[C@@]43C)[C@@H]1C/C(=C\c1cccnc1)[C@@H]2O | > 100 | 42.9 |  | 39.8 | 36.3 | > 100 |  | > 100 | 32.2 | 17.2 |
| O=C(/C=C/c1ccc(OCc2ccccc2)cc1)NCc1ccc(C(=O)NCCc2ccccc2)cc1 | > 100 | > 100 |  | > 100 | > 100 | > 100 | > 100 | > 100 | > 100 | > 100 |
| C=CCOCC1C2CCC3(OCCO3)C21 (stereo not drawn) | > 100 |  | > 100 | > 100 | > 100 | > 100 | > 100 | > 100 | > 100 | > 100 |
| COc1cc2c(c(OC)c1OC)C(=O)c1c(O)cc(C)c(OC)c1C2=O | > 100 | > 100 |  |  | > 100 | > 100 | > 100 | > 100 | > 100 | > 100 |
